Values quoted from earlier work as cited in patent EP4119941A1, “HEMOGLOBIN ASSAY METHOD” (Sekisui Medical Co., Ltd., priority 2020, dated 2021).

Details: at 25°C

For O=S(=O)(O)CCNC(CO)(CO)CO [TES, N-tris(hydroxymethyl)methyl-2-aminoethanesulfonic acid], the pKa is given as 7.55.
